In the NIST ThermoML archive (doi:10.1021/je600519p):

Test: xn = mol fraction of the nth substance listed
Settings: 101 kPa, Liquid

CC(=O)c1ccccc1 [acetophenone] + CCCCCCO
Settings | mass density [kg/m3] | speed of sound [m/s] | viscosity [mPa·s]
293.15 K, x1 = 0.0498 | 828.69 | 1316 | 4.831
293.15 K, x1 = 0.1009 | 838.84 | 1323 | 4.397
293.15 K, x1 = 0.1517 | 848.99 | 1331 | 3.997
293.15 K, x1 = 0.2106 | 860.83 | 1341 | 3.605
293.15 K, x1 = 0.2474 | 868.27 | 1348 | 3.31
293.15 K, x1 = 0.3028 | 879.53 | 1358 | 2.986
293.15 K, x1 = 0.3426 | 887.67 | 1365 | 2.744
293.15 K, x1 = 0.3978 | 899.01 | 1375 | 2.491
293.15 K, x1 = 0.4512 | 910.05 | 1385 | 2.266
293.15 K, x1 = 0.4985 | 919.88 | 1394 | 2.085
293.15 K, x1 = 0.5526 | 931.2 | 1404 | 1.93
293.15 K, x1 = 0.6071 | 942.67 | 1415 | 1.798
293.15 K, x1 = 0.6491 | 951.55 | 1424 | 1.744
293.15 K, x1 = 0.7101 | 964.53 | 1437 | 1.65
293.15 K, x1 = 0.7485 | 972.75 | 1445 | 1.664
293.15 K, x1 = 0.8019 | 984.23 | 1457 | 1.673
293.15 K, x1 = 0.8521 | 995.09 | 1467 | 1.691
293.15 K, x1 = 0.9045 | 1006.5 | 1476 | 1.71
293.15 K, x1 = 0.9554 | 1017.63 | 1485 | 1.727
303.15 K, x1 = 0.0498 | 821.41 | 1285 | 3.559
303.15 K, x1 = 0.1009 | 831.48 | 1293 | 3.262
303.15 K, x1 = 0.1517 | 841.54 | 1302 | 2.989
303.15 K, x1 = 0.2106 | 853.28 | 1313 | 2.725
303.15 K, x1 = 0.2474 | 860.66 | 1320 | 2.511
303.15 K, x1 = 0.3028 | 871.83 | 1332 | 2.306
303.15 K, x1 = 0.3426 | 879.89 | 1340 | 2.148
303.15 K, x1 = 0.3978 | 891.14 | 1351 | 1.961
303.15 K, x1 = 0.4512 | 902.09 | 1362 | 1.805
303.15 K, x1 = 0.4985 | 911.85 | 1371 | 1.692
303.15 K, x1 = 0.5526 | 923.08 | 1382 | 1.583
303.15 K, x1 = 0.6071 | 934.47 | 1393 | 1.488
303.15 K, x1 = 0.6491 | 943.29 | 1402 | 1.442
303.15 K, x1 = 0.7101 | 956.19 | 1414 | 1.431
303.15 K, x1 = 0.7485 | 964.35 | 1421 | 1.426
303.15 K, x1 = 0.8019 | 975.77 | 1430 | 1.455
303.15 K, x1 = 0.8521 | 986.56 | 1439 | 1.465
303.15 K, x1 = 0.9045 | 997.88 | 1445 | 1.48
303.15 K, x1 = 0.9554 | 1008.95 | 1451 | 1.496
313.15 K, x1 = 0.0498 | 813.97 | 1277 | 2.684
313.15 K, x1 = 0.1009 | 823.85 | 1285 | 2.481
313.15 K, x1 = 0.1517 | 833.75 | 1293 | 2.292
313.15 K, x1 = 0.2106 | 845.32 | 1303 | 2.104
313.15 K, x1 = 0.2474 | 852.58 | 1310 | 1.977
313.15 K, x1 = 0.3028 | 863.61 | 1320 | 1.812
313.15 K, x1 = 0.3426 | 871.57 | 1328 | 1.697
313.15 K, x1 = 0.3978 | 882.7 | 1339 | 1.58
313.15 K, x1 = 0.4512 | 893.55 | 1350 | 1.483
313.15 K, x1 = 0.4985 | 903.23 | 1360 | 1.396
313.15 K, x1 = 0.5526 | 914.38 | 1370 | 1.322
313.15 K, x1 = 0.6071 | 925.7 | 1380 | 1.263
313.15 K, x1 = 0.6491 | 934.49 | 1387 | 1.255
313.15 K, x1 = 0.7101 | 947.35 | 1398 | 1.243
313.15 K, x1 = 0.7485 | 955.5 | 1404 | 1.252
313.15 K, x1 = 0.8019 | 966.9 | 1408 | 1.264
313.15 K, x1 = 0.8521 | 977.72 | 1409 | 1.266
313.15 K, x1 = 0.9045 | 989.09 | 1411 | 1.271
313.15 K, x1 = 0.9554 | 1000.23 | 1416 | 1.276
323.15 K, x1 = 0.0498 | 806.47 | 1230 | 2.119
323.15 K, x1 = 0.1009 | 816.28 | 1238 | 1.97
323.15 K, x1 = 0.1517 | 826.11 | 1247 | 1.831
323.15 K, x1 = 0.2106 | 837.59 | 1259 | 1.69
323.15 K, x1 = 0.2474 | 844.8 | 1266 | 1.585
323.15 K, x1 = 0.3028 | 855.74 | 1278 | 1.48
323.15 K, x1 = 0.3426 | 863.65 | 1287 | 1.395
323.15 K, x1 = 0.3978 | 874.71 | 1298 | 1.307
323.15 K, x1 = 0.4512 | 885.48 | 1308 | 1.236
323.15 K, x1 = 0.4985 | 895.1 | 1316 | 1.169
323.15 K, x1 = 0.5526 | 906.19 | 1326 | 1.118
323.15 K, x1 = 0.6071 | 917.44 | 1335 | 1.075
323.15 K, x1 = 0.6491 | 926.17 | 1342 | 1.069
323.15 K, x1 = 0.7101 | 938.95 | 1351 | 1.073
323.15 K, x1 = 0.7485 | 947.06 | 1356 | 1.075
323.15 K, x1 = 0.8019 | 958.4 | 1361 | 1.073
323.15 K, x1 = 0.8521 | 969.16 | 1365 | 1.067
323.15 K, x1 = 0.9045 | 980.48 | 1370 | 1.076
323.15 K, x1 = 0.9554 | 991.56 | 1372 | 1.086
